Data taken from patent publication US11584747B2, “Substituted pyridopyrimidinonyl compounds useful as T cell activators” (BRISTOL-MYERS SQUIBB COMPANY, priority 2019, dated 2023).
Where two headings read alike, the source gives them in different places.

How the values were obtained:
human DGKζ = human DGKζ (Homo sapiens (Human), UniProt Q13574); test: DGKζ LIPGLO assay (extruded liposome substrate, ADP-Glo luminescence); type: biochemical
human DGKα = human DGKα (Homo sapiens (Human), UniProt P23743); test: DGKα ADPGLO assay (detergent/lipid micelle substrate); type: biochemical
Chain of human DGKα (P23743 whole entry, looked up, the tested form may be a part): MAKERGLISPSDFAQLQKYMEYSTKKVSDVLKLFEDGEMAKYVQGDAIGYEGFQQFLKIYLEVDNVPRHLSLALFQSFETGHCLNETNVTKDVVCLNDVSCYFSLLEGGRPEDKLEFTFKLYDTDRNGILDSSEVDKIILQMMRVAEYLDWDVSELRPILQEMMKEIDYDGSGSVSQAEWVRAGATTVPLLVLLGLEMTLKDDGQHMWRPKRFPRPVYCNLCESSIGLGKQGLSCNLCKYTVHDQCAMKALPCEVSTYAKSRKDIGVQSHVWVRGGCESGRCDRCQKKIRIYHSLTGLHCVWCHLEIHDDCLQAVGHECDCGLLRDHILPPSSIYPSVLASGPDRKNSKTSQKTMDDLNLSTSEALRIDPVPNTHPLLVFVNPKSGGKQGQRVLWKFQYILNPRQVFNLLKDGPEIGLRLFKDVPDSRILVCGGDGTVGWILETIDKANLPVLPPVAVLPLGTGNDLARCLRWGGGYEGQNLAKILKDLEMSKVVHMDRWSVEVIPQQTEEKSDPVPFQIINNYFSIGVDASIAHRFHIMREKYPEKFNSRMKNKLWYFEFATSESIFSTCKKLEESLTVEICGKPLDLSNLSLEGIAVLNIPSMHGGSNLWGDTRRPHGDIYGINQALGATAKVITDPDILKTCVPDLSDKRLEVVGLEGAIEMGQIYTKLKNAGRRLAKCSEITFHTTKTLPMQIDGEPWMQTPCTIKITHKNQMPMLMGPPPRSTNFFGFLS
Procedure: DGK Alpha ADPGLO (Truncated) IC50 (uM)
The detergent/lipid micelle was prepared by combining 15 g phosphatidylserine (Avanti 840035P) and 1 g diacylglycerol (8008110) and dissolving into 150 mL chloroform in a 2 L round bottom flask. Chloroform was removed under high vacuum by rotary evaporation. […] The lipid/detergent solution was split into 5 mL aliquots and stored at −80° C.

[1] = test system: human venous whole blood (IFN-γ); test: Human whole blood IFN-γ assay; type: cell-based
Procedure: Human venous whole blood (22.5 μL per well), obtained from healthy donors, was pre-treated with compounds for one hour at 37° C. in a humidified 95% air/5% CO2 incubator. The blood was stimulated with 2.5 μL anti-human CD3 and anti-CD28 mAb at a final concentration of 1 μg/mL each for 24 hours at 37° C. IFN-γ in the supernatants was measured using AlphLISA kit (Cat #AL217).

[2] = liposome assay, read-out: DGK zeta LIPGLO IC50
[3] = truncated DGK alpha, read-out: DGK alpha ADPGLO (Truncated) IC50
[4] = whole blood, normalized to 3 μM reference compound as 100% activation, read-out: IFN-γ Whole Blood Normalized EC50
[5] = liposome (LIPGLO) assay, read-out: DGK zeta (liposome assay) IC50
[6] = ADPGLO assay, read-out: DGK alpha ADPGLO IC50
[7] = Homo sapiens, 24 h, human whole blood, anti-CD3 plus anti-CD28 stimulation, 24 hours, read-out: IFN-γ Whole Blood EC50
[8] = Homo sapiens, whole blood, normalized to 3 μM reference compound as 100% activation, read-out: IFN-γ Whole Blood Normalized EC50

Chain of human DGKζ (Q13574 other isoform, or with tags, fused parts or gaps): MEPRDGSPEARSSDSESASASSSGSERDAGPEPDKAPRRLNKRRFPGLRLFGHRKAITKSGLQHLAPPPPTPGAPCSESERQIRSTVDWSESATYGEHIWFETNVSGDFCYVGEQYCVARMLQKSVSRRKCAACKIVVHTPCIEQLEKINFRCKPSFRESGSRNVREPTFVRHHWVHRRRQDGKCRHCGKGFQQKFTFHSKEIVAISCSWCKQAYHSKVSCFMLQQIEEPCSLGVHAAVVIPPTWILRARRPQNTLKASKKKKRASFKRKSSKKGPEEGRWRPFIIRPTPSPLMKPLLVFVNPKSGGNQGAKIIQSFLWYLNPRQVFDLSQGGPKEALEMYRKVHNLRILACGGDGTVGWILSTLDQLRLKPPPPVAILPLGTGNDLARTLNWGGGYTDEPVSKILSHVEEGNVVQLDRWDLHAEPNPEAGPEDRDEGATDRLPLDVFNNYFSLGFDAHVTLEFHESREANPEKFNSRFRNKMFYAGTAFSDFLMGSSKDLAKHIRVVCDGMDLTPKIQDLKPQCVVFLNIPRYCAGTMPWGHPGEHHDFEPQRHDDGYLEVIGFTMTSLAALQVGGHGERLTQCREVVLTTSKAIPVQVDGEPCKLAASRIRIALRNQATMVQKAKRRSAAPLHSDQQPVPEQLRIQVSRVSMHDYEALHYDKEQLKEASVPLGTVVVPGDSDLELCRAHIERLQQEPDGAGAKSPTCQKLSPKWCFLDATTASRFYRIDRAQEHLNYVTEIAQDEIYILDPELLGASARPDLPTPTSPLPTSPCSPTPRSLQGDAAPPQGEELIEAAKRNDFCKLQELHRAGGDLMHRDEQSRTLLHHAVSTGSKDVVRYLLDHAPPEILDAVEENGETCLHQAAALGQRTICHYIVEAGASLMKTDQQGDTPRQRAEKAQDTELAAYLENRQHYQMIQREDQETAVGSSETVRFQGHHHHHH

Compound	IC50 (human DGKζ; [2]) [nM]	IC50 (human DGKα; [3]) [nM]	EC50 [1, 4] [nM]	also measured
CCC(c1ccc(OCC2CC2)cc1)N1C[C@H](CC)N(c2nc(=O)n(C)c3ccc(C#N)nc23)C[C@H]1CC (stereo partly drawn) [Example 217, 4-((2S,5R)-4-(1-(4-(cyclopropylmethoxy)phenyl)propyl)-2,5-diethylpiperazin-1-yl)-1-methyl-2-oxo-1,2-dihydropyrido[3,2-d]pyrimidine-6-carbonitrile]	4260	1660	870	
CCC(c1ccc(C(F)(F)F)cc1)N1C[C@H](CC)N(c2nc(=O)n(C)c3ccc(Cl)nc23)C[C@H]1CC (single isomer, unassigned) [Example 421]				IC50 (human DGKζ; [5]): 320 nM; IC50 (human DGKα; [6]): 64 nM; EC50 [1, 7]: 190 nM
CC[C@H]1CN(C(C)c2ccc(C3CC3)nc2)[C@H](CC)CN1c1nc(=O)n(C)c2ccc(C#N)nc12 (stereo partly drawn) [Example 193, 4-((2 S,5R)-4-(1-(6-cyclopropylpyridin-3-yl)ethyl)-2,5-diethylpiperazin-1-yl)-1-methyl-2-oxo-1,2-dihydropyrido[3,2-d]pyrimidine-6-carbonitrile]	1770	650	1150	
[2H]C([2H])([2H])Oc1ccc(C(C)N2C[C@H](CC)N(c3nc(=O)n(C)c4ccc(C#N)nc34)C[C@H]2CC)cc1 (single isomer, unassigned) [Example 191]	260	460	290	
CC[C@H]1CN(C(C)c2ccc3oc(=O)n(C)c3c2)[C@H](CC)CN1c1nc(=O)n(C)c2ccc(C#N)nc12 (stereo partly drawn) [Example 203, 4-((2S,5R)-2,5-diethyl-4-(1-(3-methyl-2-oxo-2,3-dihydrobenzo[d]oxazol-5-yl)ethyl)piperazin-1-yl)-1-methyl-2-oxo-1,2-dihydropyrido[3,2-d]pyrimidine-6-carbonitrile]	2710	780	2210	
CC[C@H]1CN(C(C)c2ccc(C(=O)OC)cc2)[C@H](CC)CN1c1nc(=O)n(C)c2ccc(C#N)nc12 (stereo partly drawn) [Example 265, methyl 4-(1-((2R,5S)-4-(6-cyano-1-methyl-2-oxo-1,2-dihydropyrido[3,2-d]pyrimidin-4-yl)-2,5-diethylpiperazin-1-yl)ethyl)benzoate]	370	790	1590	
CC[C@H]1CN(C(C)c2cnc(N3CCOCC3)nc2)[C@H](CC)CN1c1nc(=O)n(C)c2ccc(C#N)nc12 (stereo partly drawn) [Example 207, 4-((2S,5R)-2,5-diethyl-4-(1-(2-morpholinopyrimidin-5-yl)ethyl)piperazin-1-yl)-1-methyl-2-oxo-1,2-dihydropyrido[3,2-d] pyrimidine-6-carbonitrile]	970	620	1060	
CC[C@H]1CN(C(C)c2nc(C3CC3)no2)[C@H](CC)CN1c1nc(=O)n(C)c2ccc(C#N)nc12 (stereo partly drawn) [Example 361, 4-((2S,5R)-4-(1-(3-cyclopropyl-1,2,4-oxadiazol-5-yl)ethyl)-2,5-diethylpiperazin-1-yl)-1-methyl-2-oxo-1,2-dihydropyrido[3,2-d]pyrimidine-6-carbonitrile]				IC50 (human DGKζ; [5]): 22 nM; IC50 (human DGKα; [6]): 5 nM; EC50 ([1]; human whole blood, anti-CD3 plus anti-CD28 stimulation, 24 hours, read-out: IFN-γ Whole Blood EC50): 260 nM
CC[C@H]1CN(C(C)c2ccc(C(F)(F)F)cc2)[C@H](CC)CN1c1nc(=O)n(C)c2ccc(OCCOC)nc12 (stereo partly drawn) [Example 433, 4-((2S,5R)-2,5-diethyl-4-(1-(4-(trifluoromethyl)phenyl)ethyl)piperazin-1-yl)-6-(2-methoxyethoxy)-1-methylpyrido[3,2-d]pyrimidin-2(1H)-one]				IC50 (human DGKζ; [5]): 125000 nM; IC50 (human DGKα; [6]): 125000 nM; EC50 [1, 7]: 20000 nM
CC[C@H]1CN(C(C)c2ccc(CN3CCC(F)(F)CC3)cc2)[C@H](CC)CN1c1nc(=O)n(C)c2ccc(C#N)nc12 (stereo partly drawn) [Example 278, 4-((2S,5R)-4-(1-(4-((4,4-difluoropiperidin-1-yl)methyl)phenyl)ethyl)-2,5-diethylpiperazin-1-yl)-1-methyl-2-oxo-1,2-dihydropyrido[3,2-d]pyrimidine-6-carbonitrile]		2860		EC50 [1, 8]: 1150 nM
CCOc1ccc2c(n1)c(N1C[C@@H](CC)N(C(CC)c3ccc(C(F)(F)F)cc3)C[C@@H]1CC)nc(=O)n2C (stereo partly drawn) [Example 437, 4-((2S,5R)-2,5-diethyl-4-(1-(4-(trifluoromethyl)phenyl)propyl)piperazin-1-yl)-6-ethoxy-1-methylpyrido[3,2-d]pyrimidin-2(1H)-one]				IC50 (human DGKζ; [5]): 250000 nM; IC50 (human DGKα; [6]): 250000 nM

Further compounds by falling IC50 (human DGKα; [3]), results first:

IC50 (human DGKζ; [2]) [nM]	IC50 (human DGKα; [3]) [nM]	Compound	EC50 [1, 4] [nM]	also measured
4060	340	CCC(c1ccc(CN2CCOCC2)cc1)N1C[C@H](CC)N(c2nc(=O)n(C)c3ccc(C#N)nc23)C[C@H]1CC (stereo partly drawn) [Example 268, 4-((2S,5R)-2,5-diethyl-4-(1-(4-(morpholinomethyl)phenyl)propyl)piperazin-1-yl)-1-methyl-2-oxo-1,2-dihydropyrido[3,2-d]pyrimidine-6-carbonitrile]	1000	
500	210	CC[C@H]1CN(C(C)c2ccc(CN3CCN(C)C(=O)C3)cc2)[C@H](CC)CN1c1nc(=O)n(C)c2ccc(C#N)nc12 (stereo partly drawn) [Example 287, 4-((2S,5R)-2,5-diethyl-4-(1-(4-((4-methyl-3-oxopiperazin-1-yl)methyl)phenyl)ethyl)piperazin-1-yl)-1-methyl-2-oxo-1,2-dihydropyrido[3,2-d]pyrimidine-6-carbonitrile]		
950	170	CCC(c1ccc(OC(F)F)cc1F)N1C[C@H](CC)N(c2nc(=O)n(C)c3ccc(C#N)nc23)C[C@H]1CC (stereo partly drawn) [Example 233, 4-((2S,5R)-4-(1-(4-(difluoromethoxy)-2-fluorophenyl)propyl)-2,5-diethylpiperazin-1-yl)-1-methyl-2-oxo-1,2-dihydropyrido[3,2-d]pyrimidine-6-carbonitrile]	2770	
250	170	CC[C@H]1CN(C(c2ccc(F)cc2)c2cccc(C(F)F)n2)[C@H](CC)CN1c1nc(=O)n(C)c2ccc(C#N)nc12 (stereo partly drawn) [Example 257, 4-((2S,5R)-4((6-(difluoromethyl)pyridin-2-yl)(4-fluorophenyl)methyl)-2,5-diethylpiperazin-1-yl)-1-methyl-2-oxo-1,2-dihydropyrido[3,2-d]pyrimidine-6-carbonitrile]		
2080	130	CCC(c1ccc(OC(F)F)cc1)N1C[C@H](CC)N(c2nc(=O)n(C)c3ccc(C#N)nc23)C[C@H]1CC (stereo partly drawn) [Example 223, 4-((2S,5R)-4-(1-(4-(difluoromethoxy)phenyl)propyl)-2,5-diethylpiperazin-1-yl)-1-methyl-2-oxo-1,2-dihydropyrido[3,2-d]pyrimidine-6-carbonitrile]		EC50 [1, 8]: 900 nM
1030	91	[2H]C([2H])([2H])Oc1ccc(C(CC)N2C[C@H](CC)N(c3nc(=O)n(C)c4ccc(C#N)nc34)C[C@H]2CC)cc1 (single isomer, unassigned) [Example 209]	1280	
52	61	CC[C@H]1CN(C(C)c2ccc(C3CC3)nc2)[C@H](CC)CN1c1nc(=O)n(C)c2ccc(C#N)nc12 (stereo partly drawn) [Example 192, 4-((2 S,5R)-4-(1-(6-cyclopropylpyridin-3-yl)ethyl)-2,5-diethylpiperazin-1-yl)-1-methyl-2-oxo-1,2-dihydropyrido[3,2-d]pyrimidine-6-carbonitrile]	110	
950	59	CCC(c1ccc(OC)cc1)N1C[C@H](CC)N(c2nc(=O)n(C)c3ccc(C#N)nc23)C[C@H]1CC (stereo partly drawn) [Example 213, 4-((2S,5R)-2,5-diethyl-4-(1-(4-methoxyphenyl)propyl)piperazin-1-yl)-1-methyl-2-oxo-1,2-dihydropyrido[3,2-d]pyrimidine-6-carbonitrile]	190	
130	42	CC[C@H]1CN(C(C)c2ccc(N3CCCC3=O)cc2)[C@H](CC)CN1c1nc(=O)n(C)c2ccc(C#N)nc12 (stereo partly drawn) [Example 230, 4-((2S,5R)-2,5-diethyl-4-(1-(4-(2-oxopyrrolidin-1-yl)phenyl)ethyl)piperazin-1-yl)-1-methyl-2-oxo-1,2-dihydropyrido[3,2-d]pyrimidine-6-carbonitrile]	1290	
38	37	CCC(c1ccc(OCC2CC2)cc1F)N1C[C@H](CC)N(c2nc(=O)n(C)c3ccc(C#N)nc23)C[C@H]1CC (stereo partly drawn) [Example 198, 4-((2S,5R)-4-(1-(4-(cyclopropylmethoxy)-2-fluorophenyl)propyl)-2,5-diethylpiperazin-1-yl)-1-methyl-2-oxo-1,2-dihydropyrido[3,2-d]pyrimidine-6-carbonitrile]	15	
	6	CCCC(c1ccc(C(F)(F)F)cc1)N1C[C@H](CC)N(c2nc(=O)n(C)c3ccc(C#N)nc23)C[C@H]1CC (stereo partly drawn) [Example 243, 4-((2S,5R)-2,5-Diethyl-4-(1-(4-(trifluoromethyl)phenyl)butyl)piperazin-1-yl)-1-methyl-2-oxo-1,2-dihydropyrido[3,2-d]pyrimidine-6-carbonitrile]	59	
